“Also recorded” adds a separate entry of the source.
Tested on: abdominal fat pad
Test: Local NPY or Y2R antagonist treatment of the abdominal fat pad (ob/ob, WT, eNOS−/− mice)
Assay type: in vivo
Conditions: for fat in the region of the pellet (MRI thresholded for fat): compared to Placebo pellets, FIG. 9; for adipocyte number and size, Y2R staining in subcutaneous abdominal fat pad (immunohistochemistry): FIG. 10; for capillary density / density of von Willebrand factor positive microvessels in abdominal fat: Y2R antagonist intra-fat vs vehicle
Description: Eight week old ob/ob mice are used to study the growth of adipose tissue when treated with growth factor NPY versus antagonist. Whether the Y2R antagonist causes regression of fat deposits is determined using an antagonist in older 3-6 month old ob/ob mice. […] Fat pads (subcutaneous abdominal, omental, subcutaneous, sternal, and interscapular) are harvested and examined to determine whether there is hyperplasia, hypertrophy, or apoptosis of the fat cells. Whether NPY-mediated angiogenesis is involved in adipose tissue growth is determined. The anti-angiogenic effects and consequences of Y2R antagonist on adipose tissue growth is determined by subcutaneous injections of Y2R antagonist BIIE0246 (0.2 ml, 1 μM, daily/14 days) periabdominally into the abdominal fat pad or subcutaneous implantation of a slow-release pellet containing BIE0246 (10 μg/14 days) followed by an evaluation of the fat deposits by MRI. These fat pads are then harvested, weighed, and stained for endothelial markers and NPYRs. Fat pads are further characterized by RT-PCR, quantitative real-time PCR, and ELISA.
NPY slow-release pellets (1 μg/14 days) are inserted subcutaneously into the abdominal fat pad of ob/ob, C57BL/6 and SV129 WT mice. […] NPY pellets are also inserted into eNOS^−/− -mice. […] Specific peptide Y2R antagonist, BIIE0246, is subcutaneously injected periabdominally (0.2 ml, 1 μM, daily/14 days) or is given in the form of a slow release pellet (10 μg/14 days). […] Changes in visceral fat are visualized by MRI and quantified by volumetric calculations (FIG. 9). Fat pad weight is also measured upon euthanasia of the mice (FIG. 8).
In vivo treatment of murine model of obesity with antagonist: 6-week-old mice from four murine strains: C57BL-6, ob/ob, SV129, and eNOS^−/− are used. The mice are separated into treatment groups to compare the effects of diet, stress, NPY and specific receptor antagonists. The mice are weighed every other day during the course of the treatment. Control groups for the transgenic mice are matched by background strain, age, and gender. WT C57BL/6 mice (a background strain predisposed to weight gain [64]) is fed a “comfort food diet” consisting of lard and sugar and subjected to cold stress (1 hour in a cage with 1 cm of ice and water at the base of the cage). NPY is delivered locally by the implantation of a NPY slow-release pellet ([…]) into the abdominal fat pad. NPY receptor antagonists or antisense ODN is delivered by rotating daily subcutaneous injections (0.2 ml, 1 μM, daily/14 days) in the abdominal region. 20-mer phosphorothioate oligonucleotide antisense, targeted forward from rat Y2-gene transcription initiation codon (5-[…]-3′) (Molecular Research Laboratories, Herndon, Va.) is used. The scrambled antisense sequence contains some modified deoxynucleotides in a random order (5′-[…]-3′).
Tissue sample collection and processing: After treatment, fat pads are harvested from: 1) subcutaneous abdominal, 2) intra-abdominal (omental), 3) inguinal, 4) interscapular. The total central fat (abdominal region only) weight (FW) and FW to percent of body weight (F/B) is measured. The adipose tissue is processed for paraffin embedding and sections, […], are collected on glass slides for immunohistochemistry. 50 mg of tissue is used for quantitative real-time RT-PCR.
Magnetic Resonance Imaging (MRI): A Brukker 7-Tesla small-animal magnetic resonance imager coil is used to visualize and noninvasively quantitate various fat depots. A 3-dimensional (3D) T2-weighted (T2W) imaging protocol optimized for high contrast fat-imaging is implemented. […] Quantification of the total body fat as well as separate specific fat depots is calculated using thresholding and voxel count plugins from NIH image J software. VolumeJ is used to render, in a 3D image, the various fat depots.

[1] = NPY 1 μg/14 day-pellet, both obese and lean mice
[2] = NPY slow-release pellet 1 μg/14 days vs placebo, ob/ob, C57BL/6 and SV129 WT mice
[3] = 8-week old ob/ob mice, s.c. 0.2 ml, 1 μM, daily/14 days or pellet 10 μg/14 days, vs saline/PLC
[4] = BIIE0246 1 μM/day s.c. into the abdominal pads, within 2-weeks

| Compound | subcutaneous abdominal adipose tissue volume (MRI) [1] | subcutaneous abdominal adipose tissue weight (g) [1] | WAT cellularity, proliferation of small adipocytes (NPY in WT mice) | FW to body weight ratio (F/B) (NPY pellet, eNOS−/− mice) | total central fat weight (FW) / fat pad weight (NPY pellet, eNOS−/− mice) | FW to body weight ratio (F/B) [2] | total central fat weight (FW) / fat pad weight [2] | fat in the region of the pellet (MRI thresholded for fat) | adipogenic activity in eNOS−/− mice (mice deficient in endothelial nitric oxide synthase) | visceral fat (ob/ob mice, NPY, FIG. 8) | adipocyte number and size, Y2R staining in subcutaneous abdominal fat pad (immunohistochemistry) (ob/ob mice) | decrease in F/B [3] [%] | decrease in FW [3] [%] | decrease of abdominal pad volume [4] [%] | decrease of abdominal pad weight [4] [%] | capillary density / density of von Willebrand factor positive microvessels in abdominal fat (listed as Y2R antagonist) | capillary density / density of von Willebrand factor positive microvessels in abdominal fat (listed as Y2R-antagonist) | TUNEL-positive staining of endothelial cells and adipocytes (intra-fat injections of Y2R antagonist) |
| --- | --- | --- | --- | --- | --- | --- | --- | --- | --- | --- | --- | --- | --- | --- | --- | --- | --- | --- |
| neuropeptide Y [NPY] | significantly increased | significantly increased | mimicked | no significant weight gain | no significant weight gain | significant increase | significant increase; also recorded: Increase of fat pad weight | increased fat | resistant to NPY's adipogenic activity | increases visceral fat | greater number of smaller adipocytes | – | – | – | – | – | – | – |
| N=C(N)NCCC[C@H](NC(=O)CC1(CC(=O)N2CCN(C3c4ccccc4NC(=O)c4ccccc43)CC2)CCCC1)C(=O)NCCn1c(=O)n(-c2ccccc2)n(-c2ccccc2)c1=O (some centres unmarked) [BIIE0246] | – | – | – | – | – | – | – | decreased fat | – | – | fewer but larger adipocytes and fewer Y2Rs | 40 | 40 | 50 | 50 | decreased the density of von Willebrand-positive microvessels | significant decrease in capillary density | increasing TUNEL-positive staining |
